Test results: ChEMBL document CHEMBL5352402, “Discovery of novel non-nucleoside inhibitors with high potency and selectivity for DNA methyltransferase 3A” (Eur J Med Chem, 2022)
Each block holds one molecule with its values, some of them ahead of it.

Tests used:
[1] = biological target: T1, DNMT3A2/3L complex (Homo sapiens) (UniProt Q9Y6K1+Q9UJW3); test: (§1) Inhibition of N-terminal His-tagged human DNMT3A (623 to 912 residues)/N-terminal GST-tagged human DNMT3L (160 to 387 residues) co-expressed in baculovirus infected Sf9 cells assessed as DNA methylation using DNA oligonucleotide IDT-01 as substrate at 100 uM preincubated for 15 mins followed by substrate addition in presence of [3H]-SAM and measured after 4 hrs by radioactive methylation assay; settings: time 255.0 min
T1 sequence (Q9UJW3 whole entry, looked up, the tested form may be a part): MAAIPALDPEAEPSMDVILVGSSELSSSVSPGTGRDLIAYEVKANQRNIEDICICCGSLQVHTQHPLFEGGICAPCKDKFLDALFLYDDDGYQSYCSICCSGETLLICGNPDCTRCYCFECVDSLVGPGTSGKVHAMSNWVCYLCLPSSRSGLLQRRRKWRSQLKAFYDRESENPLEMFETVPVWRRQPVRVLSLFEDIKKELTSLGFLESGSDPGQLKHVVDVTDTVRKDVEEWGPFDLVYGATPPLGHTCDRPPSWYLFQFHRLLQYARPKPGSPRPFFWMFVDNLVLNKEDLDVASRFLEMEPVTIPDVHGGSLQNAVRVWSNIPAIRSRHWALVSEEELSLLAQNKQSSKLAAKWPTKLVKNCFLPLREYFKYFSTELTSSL
T1 sequence (Q9Y6K1 whole entry, looked up, the tested form may be a part): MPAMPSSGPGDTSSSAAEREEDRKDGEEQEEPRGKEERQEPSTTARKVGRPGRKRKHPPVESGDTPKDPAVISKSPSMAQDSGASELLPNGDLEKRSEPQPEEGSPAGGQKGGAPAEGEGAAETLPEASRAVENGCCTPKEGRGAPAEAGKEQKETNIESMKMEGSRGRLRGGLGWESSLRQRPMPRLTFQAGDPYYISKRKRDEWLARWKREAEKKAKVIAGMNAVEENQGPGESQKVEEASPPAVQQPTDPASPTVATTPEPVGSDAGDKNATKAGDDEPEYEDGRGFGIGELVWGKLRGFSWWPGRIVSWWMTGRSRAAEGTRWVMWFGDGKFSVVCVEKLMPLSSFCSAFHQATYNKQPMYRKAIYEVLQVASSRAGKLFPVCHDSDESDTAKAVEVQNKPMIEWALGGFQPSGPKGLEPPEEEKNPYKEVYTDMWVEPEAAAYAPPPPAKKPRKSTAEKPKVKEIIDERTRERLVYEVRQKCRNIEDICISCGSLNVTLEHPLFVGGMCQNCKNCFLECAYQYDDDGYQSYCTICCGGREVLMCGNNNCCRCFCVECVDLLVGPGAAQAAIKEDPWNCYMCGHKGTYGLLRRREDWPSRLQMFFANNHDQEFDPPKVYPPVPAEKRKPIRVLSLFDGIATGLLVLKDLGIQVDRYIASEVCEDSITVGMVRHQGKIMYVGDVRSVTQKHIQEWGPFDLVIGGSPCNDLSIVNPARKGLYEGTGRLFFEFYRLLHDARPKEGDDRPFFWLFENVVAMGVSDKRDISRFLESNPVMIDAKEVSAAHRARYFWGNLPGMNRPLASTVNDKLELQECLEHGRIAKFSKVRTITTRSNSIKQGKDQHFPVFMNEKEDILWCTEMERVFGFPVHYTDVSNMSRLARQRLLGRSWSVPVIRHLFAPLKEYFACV

DNMT3A2/3L complex = DNMT3A2/3L complex (Homo sapiens, UniProt Q9Y6K1); test: as §1, with “substrate” for “substrate at 100 uM”
Sequence of DNMT3A2/3L complex (Q9Y6K1 whole entry, looked up, one chain of several): as the sequence (Q9Y6K1 whole entry, looked up, the tested form may be a part) above

[2] = biological target: T1, DNMT3A2/3L complex (Homo sapiens); test: as §1, with “10” for “100”; settings: time 255.0 min
[3] = biological target: DNA (cytosine-5)-methyltransferase 1 (Homo sapiens, UniProt P26358); test: Inhibition of N-terminal GST-tagged full-length recombinant human DNMT1 assessed as DNA methylation using pdI-pdC DNA as substrate preincubated for 15 mins followed by substrate addition in presence of [3H]-SAM and measured after 150 mins by radioactive methylation assay
Sequence of DNA (cytosine-5)-methyltransferase 1 (P26358 whole entry): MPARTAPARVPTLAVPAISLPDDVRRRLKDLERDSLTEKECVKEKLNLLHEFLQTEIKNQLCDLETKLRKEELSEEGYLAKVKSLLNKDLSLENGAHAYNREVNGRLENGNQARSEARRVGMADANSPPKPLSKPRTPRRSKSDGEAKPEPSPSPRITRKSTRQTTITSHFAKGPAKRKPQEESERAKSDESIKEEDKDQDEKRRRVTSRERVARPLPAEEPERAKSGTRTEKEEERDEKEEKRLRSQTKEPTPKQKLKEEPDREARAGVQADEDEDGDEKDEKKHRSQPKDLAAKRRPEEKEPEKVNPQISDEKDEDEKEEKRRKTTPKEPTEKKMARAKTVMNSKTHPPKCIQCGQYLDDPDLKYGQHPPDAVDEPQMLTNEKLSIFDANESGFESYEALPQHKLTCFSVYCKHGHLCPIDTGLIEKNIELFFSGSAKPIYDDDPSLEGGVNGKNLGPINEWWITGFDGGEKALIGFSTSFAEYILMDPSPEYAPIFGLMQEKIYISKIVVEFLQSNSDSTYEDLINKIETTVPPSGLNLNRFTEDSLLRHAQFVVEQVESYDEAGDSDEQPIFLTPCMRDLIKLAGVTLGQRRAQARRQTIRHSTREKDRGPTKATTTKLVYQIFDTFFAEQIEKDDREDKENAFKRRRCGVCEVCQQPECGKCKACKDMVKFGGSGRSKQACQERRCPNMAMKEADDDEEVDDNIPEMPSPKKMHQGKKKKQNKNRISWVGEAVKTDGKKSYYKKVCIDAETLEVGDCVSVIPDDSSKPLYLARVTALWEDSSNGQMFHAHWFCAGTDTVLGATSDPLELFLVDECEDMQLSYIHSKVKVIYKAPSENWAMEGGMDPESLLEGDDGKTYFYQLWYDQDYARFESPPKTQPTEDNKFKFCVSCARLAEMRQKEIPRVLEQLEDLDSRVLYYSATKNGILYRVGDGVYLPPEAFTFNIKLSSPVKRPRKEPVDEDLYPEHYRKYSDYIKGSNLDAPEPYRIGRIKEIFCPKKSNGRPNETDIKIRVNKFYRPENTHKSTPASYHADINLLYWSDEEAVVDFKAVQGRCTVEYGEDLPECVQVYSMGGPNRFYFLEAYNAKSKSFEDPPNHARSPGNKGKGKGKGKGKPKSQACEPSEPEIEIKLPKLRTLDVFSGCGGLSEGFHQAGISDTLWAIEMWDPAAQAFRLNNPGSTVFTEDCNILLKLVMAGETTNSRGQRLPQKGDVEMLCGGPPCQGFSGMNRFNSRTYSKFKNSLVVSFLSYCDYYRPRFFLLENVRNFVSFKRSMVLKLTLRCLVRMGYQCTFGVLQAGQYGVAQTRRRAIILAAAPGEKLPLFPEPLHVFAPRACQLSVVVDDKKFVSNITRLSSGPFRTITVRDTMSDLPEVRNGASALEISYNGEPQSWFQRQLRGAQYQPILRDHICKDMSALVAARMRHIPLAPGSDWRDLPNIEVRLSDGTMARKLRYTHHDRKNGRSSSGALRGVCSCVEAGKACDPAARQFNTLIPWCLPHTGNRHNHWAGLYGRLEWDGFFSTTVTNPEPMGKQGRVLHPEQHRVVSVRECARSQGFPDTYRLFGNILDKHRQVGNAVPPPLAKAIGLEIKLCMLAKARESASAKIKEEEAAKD

DNMT3B = DNMT3B (Homo sapiens, UniProt Q9UBC3); test: as §1, with “DNMT3B (564” for “DNMT3A (623”, “853” for “912”, “substrate” for “substrate at 100 uM”
[4] = biological target: T2, Histone-lysine N-methyltransferase EHMT2 (Homo sapiens, UniProt Q96KQ7); test: Inhibition of N-terminal GST-tagged human G9a expressed in baculovirus infected Sf9 cells using biotinylated histone H3 peptide as substrate preincubated for 15 mins followed by substrate addition in presence of SAM and measured after 60 mins by AlphaLISA assay
T2 sequence (Q96KQ7 whole entry): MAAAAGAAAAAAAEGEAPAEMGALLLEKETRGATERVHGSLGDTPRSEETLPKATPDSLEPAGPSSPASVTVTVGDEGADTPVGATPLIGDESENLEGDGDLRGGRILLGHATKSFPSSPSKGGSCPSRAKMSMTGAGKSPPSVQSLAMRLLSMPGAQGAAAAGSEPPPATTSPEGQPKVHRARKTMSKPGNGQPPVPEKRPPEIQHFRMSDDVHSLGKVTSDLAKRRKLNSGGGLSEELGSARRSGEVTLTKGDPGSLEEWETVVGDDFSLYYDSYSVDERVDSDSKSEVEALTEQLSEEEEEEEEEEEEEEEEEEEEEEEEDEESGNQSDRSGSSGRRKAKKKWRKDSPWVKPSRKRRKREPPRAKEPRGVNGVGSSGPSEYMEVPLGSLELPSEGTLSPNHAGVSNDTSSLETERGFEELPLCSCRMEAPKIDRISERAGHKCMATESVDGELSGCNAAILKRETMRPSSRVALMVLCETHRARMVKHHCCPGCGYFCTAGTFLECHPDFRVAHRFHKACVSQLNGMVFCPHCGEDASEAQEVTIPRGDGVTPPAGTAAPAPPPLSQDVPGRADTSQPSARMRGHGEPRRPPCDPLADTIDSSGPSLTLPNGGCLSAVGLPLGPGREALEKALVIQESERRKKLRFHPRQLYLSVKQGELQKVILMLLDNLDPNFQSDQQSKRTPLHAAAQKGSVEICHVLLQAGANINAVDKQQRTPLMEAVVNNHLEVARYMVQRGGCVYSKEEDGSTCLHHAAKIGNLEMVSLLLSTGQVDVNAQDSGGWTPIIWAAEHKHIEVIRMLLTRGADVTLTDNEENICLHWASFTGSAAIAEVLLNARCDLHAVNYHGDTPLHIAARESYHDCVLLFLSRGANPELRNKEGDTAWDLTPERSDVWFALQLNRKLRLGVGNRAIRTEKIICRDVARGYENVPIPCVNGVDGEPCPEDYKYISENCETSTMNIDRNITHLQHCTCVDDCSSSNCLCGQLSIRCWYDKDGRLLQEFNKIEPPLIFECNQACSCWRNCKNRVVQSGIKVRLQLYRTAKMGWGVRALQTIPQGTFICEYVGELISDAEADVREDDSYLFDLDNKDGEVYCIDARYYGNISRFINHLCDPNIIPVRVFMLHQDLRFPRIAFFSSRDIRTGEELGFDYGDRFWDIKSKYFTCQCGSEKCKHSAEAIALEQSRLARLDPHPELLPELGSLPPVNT

THP-1 [5] = test: Antiproliferative activity against human THP-1 cells assessed as inhibition of cell proliferation at 0.1 to 100 uM incubated upto 72 hrs by MTT assay; type: functional, cell-based; settings: dose 0.1-100 µM
HCT-116 [6] = test: Antiproliferative activity against human HCT-116 cells assessed as inhibition of cell proliferation at 0.1 to 100 uM incubated upto 72 hrs by MTT assay; type: functional, cell-based; settings: dose 0.1-100 µM
U-937 [7] = test: Antiproliferative activity against human U-937 cells assessed as inhibition of cell proliferation at 0.1 to 100 uM incubated upto 72 hrs by MTT assay; type: functional, cell-based; settings: dose 0.1-100 µM
K562 [8] = test: Antiproliferative activity against human K562 cells assessed as inhibition of cell proliferation at 0.1 to 100 uM incubated upto 72 hrs by MTT assay; type: functional, cell-based; settings: dose 0.1-100 µM
A549 [9] = test: Antiproliferative activity against human A549 cells assessed as inhibition of cell proliferation at 0.1 to 100 uM incubated upto 72 hrs by MTT assay; type: functional, cell-based; settings: dose 0.1-100 µM
DU-145 [10] = test: Antiproliferative activity against human DU-145 cells assessed as inhibition of cell proliferation at 0.1 to 100 uM incubated upto 72 hrs by MTT assay; type: functional, cell-based; settings: dose 0.1-100 µM
THP-1 [11] = test: Antiproliferative activity against human THP-1 cells assessed as inhibition of cell proliferation incubated for 72 hrs by MTT assay; type: functional, cell-based; settings: THP-1, 72 h
K562 [12] = test: Antiproliferative activity against human K562 cells assessed as inhibition of cell proliferation incubated for 72 hrs by MTT assay; type: functional, cell-based; settings: K562, 72 h
DU-145 [13] = test: Antiproliferative activity against human DU-145 cells assessed as inhibition of cell proliferation incubated for 72 hrs by MTT assay; type: functional, cell-based; settings: DU-145, 72 h
[14] = Cytotoxicity activity against human PBMC cells assessed as inhibition of cell proliferation incubated for 72 hrs by MTT assay; type: toxicity, cell-based
THP-1 [15] = test: Antiproliferative activity against human THP-1 cells assessed as inhibition of cell proliferation at 100 uM incubated for 24 to 72 hrs by MTT assay; type: functional, cell-based; settings: time 24-72 hrs, TDE = time-dependent effect
HCT-116 [16] = test: Antiproliferative activity against human HCT-116 cells assessed as inhibition of cell proliferation at 100 uM incubated for 24 to 72 hrs by MTT assay; type: functional, cell-based; settings: time 24-72 hrs, TDE = time-dependent effect
U-937 [17] = test: Antiproliferative activity against human U-937 cells assessed as inhibition of cell proliferation at 100 uM incubated for 24 to 72 hrs by MTT assay; type: functional, cell-based; settings: time 24-72 hrs, TDE = time-dependent effect
K562 [18] = test: Antiproliferative activity against human K562 cells assessed as inhibition of cell proliferation at 100 uM incubated for 24 to 72 hrs by MTT assay; type: functional, cell-based; settings: time 24-72 hrs, TDE = time-dependent effect
A549 [19] = test: Antiproliferative activity against human A549 cells assessed as inhibition of cell proliferation at 100 uM incubated for 24 to 72 hrs by MTT assay; type: functional, cell-based; settings: time 24-72 hrs, TDE = time-dependent effect
DU-145 [20] = test: Antiproliferative activity against human DU-145 cells assessed as inhibition of cell proliferation at 100 uM incubated for 24 to 72 hrs by MTT assay; type: functional, cell-based; settings: time 24-72 hrs, TDE = time-dependent effect
HCT-116 [21] = test: cells; settings: Homo sapiens, HCT-116, 72 h
Description: Antiproliferative activity against human HCT-116 cells assessed as inhibition of cell proliferation incubated for 72 hrs by MTT assay

U-937 [22] = test: cells; settings: Homo sapiens, U-937, 72 h
Description: Antiproliferative activity against human U-937 cells assessed as inhibition of cell proliferation incubated for 72 hrs by MTT assay

A549 [23] = test: cells; settings: Homo sapiens, A549, 72 h
Description: Antiproliferative activity against human A549 cells assessed as inhibition of cell proliferation incubated for 72 hrs by MTT assay

SMILES: Cc1oc2ncn(CCN3CCCC3)c(=O)c2c1C(=O)Nc1ccc(C#N)cc1
inhibition [1]: 48.6%
inhibition [2]: 47.5%

SMILES: Cc1oc2ncn(CCCN3CCCCC3)c(=O)c2c1C(=O)Nc1ccc(S(N)(=O)=O)nc1
inhibition [1]: 89.8%
IC50 (DNMT3A2/3L complex): 1.3 µM
inhibition [2]: 66%
IC50 [3]: 15.9 µM
IC50 (DNMT3B): 64.7 µM
IC50 [4]: 14.9 µM
Activity (THP-1 [5]): Dose-Dependent Effect
Activity (HCT-116 [6]): Dose-Dependent Effect
Activity (U-937 [7]): Dose-Dependent Effect
Activity (K562 [8]): Dose-Dependent Effect
Activity (A549 [9]): Dose-Dependent Effect
Activity (DU-145 [10]): Dose-Dependent Effect
IC50 (THP-1 [11]): 4.2 µM
IC50 (K562 [12]): 5.4 µM
IC50 (DU-145 [13]): 4.1 µM
IC50 at 72 h [14]: 144 µM
Activity (THP-1 [15]): Tde
Activity (HCT-116 [16]): Tde
Activity (U-937 [17]): Tde
Activity (K562 [18]): Tde
Activity (A549 [19]): Tde
Activity (DU-145 [20]): Tde
IC50 (HCT-116 [21]): 1.6 µM
IC50 (U-937 [22]): 3.5 µM
IC50 (A549 [23]): 8.5 µM

SMILES: Cc1sc2ncn(CCCN(C)C)c(=O)c2c1C(=O)Nc1ccc(C#N)nc1
inhibition [1]: 37.8%
inhibition [2]: 28.9%

SMILES: Cc1oc2ncn(CCN3CCOCC3)c(=O)c2c1C(=O)Nc1ccc(C#N)cc1
inhibition [1]: 5.8%
inhibition [2]: 1%

SMILES: Cc1oc2ncn(CCN(C)C)c(=O)c2c1C(=O)Nc1ccc(C#N)cc1
inhibition [1]: 24%
inhibition [2]: 21.7%

More lines, now with the values ahead:

inhibition [1]: 48%
IC50 (DNMT3A2/3L complex): > 100 µM
inhibition [2]: 11.3%
SMILES: Cc1oc2ncn(Cc3cccnc3)c(=O)c2c1C(=O)Nc1ccc(S(N)(=O)=O)nc1

inhibition [1]: 29.5%
SMILES: Cc1oc2ncn(Cc3ccccc3)c(=O)c2c1C(=O)Nc1ccc(S(N)(=O)=O)nc1

inhibition [1]: 28.6%
SMILES: Cc1oc2ncn(C(C)c3ccccc3)c(=O)c2c1C(=O)Nc1ccc(S(N)(=O)=O)nc1 (stereo unspecified)

inhibition [1]: 29.5%
SMILES: Cc1oc2ncn(CC3CCCO3)c(=O)c2c1C(=O)Nc1ccc(S(N)(=O)=O)nc1 (stereo unspecified)

inhibition [1]: 53.9%
inhibition [2]: 33.7%
SMILES: Cc1oc2ncn(CCCN3CCCC3)c(=O)c2c1C(=O)Nc1ccc(C#N)cc1
